# Assay results: US7612045B2, “Compounds, compositions and methods for controlling biofilms and bacterial infections” (Sequoia Sciences, Inc., priority 2005, dated 2009)
# Read-outs that look alike come from different tables or passages of the source.
# Key:
# [1] = test system: E. coli clinical strain UTI89; test: Biofilm formation of E. coli clinical strain UTI89 in 96 well plates (crystal violet); format: cell-based; settings: Escherichia coli, 24 h, one day, read-out: inhibition of biofilm formation of the UTI89 strain as compared to the controls; for inhibition at 32 µg/mL: 32 ug/ml; for inhibition at 8 µg/mL: 8 ug/ml; for inhibition at 16 µg/mL: 16 ug/ml
# Protocol: Biofilm inhibition experiments were conducted using an assay adapted from the reported protocol described in Pratt and Kolter, 1998, Molecular Microbiology, 30: 285-293; Li et al., 2001, J. Bacteriol., 183: 897-908. E. coli clinical strain UTI89 was grown in LB in 96 well plates at room temperature for one day without shaking. To quantify the biofilm mass, the suspension culture was poured out and the biofilm was washed three times with water. The biofilm was stained with 0.1% crystal violet for 20 minutes. The plates were then washed three times with water. Then 95% ethanol was added to dissolve the dye at the bottom and on the wall and the OD reading at 540 nm was measured to quantify the total biofilm mass. Test compounds were added with the inoculation and biofilm mass was measured after one day as described above appropriate amounts of 100% ethanol were added to each sample to eliminate the effect of solvent. Each condition had 4 to 8 replicates on each plate and was performed over multiple days.
# Escherichia coli = test: Microtiter plate biofilm formation assay (crystal violet), Escherichia coli; format: cell-based; settings: read-out: % Biofilm Inhibition of E. coli
# [2] = test system: methicillin-resistant Staphylococcus aureus; settings: cited from earlier work
# Pseudomonas aeruginosa = test: Microtiter plate biofilm formation assay (crystal violet), Pseudomonas aeruginosa; format: cell-based; settings: read-out: % Biofilm Inhibition of Pseudomonas Aeruginosa
# Protocol: In this example, a concentrated solution of each compound tested was loaded separately into three separate wells of a polystyrene microtiter plate. In addition, each assay included triplicate wells correlating to negative and positive controls. […] Next, 150 μl of sterile media was added to each well (LB media with 0.2% glucose)—followed by 50 μl of the appropriate bacterial inoculum. Thus, each well contained a final volume of approximately 200 μl (not including the volume of the concentrated inhibitor). The final concentration of each biofilm inhibitor tested in the assay was 10 μg/ml. The microtiter plates were then placed on a shaker for approximately 20 to 24 hours at room temperature. After the incubation period, the microtiter plate was removed from the shaker, rinsed, and stained. During the rinsing step, the test compound, media, and bacterial inoculum solution was drained from the plate, approximately 300 μL of 0.1M phosphate buffered saline (PBS) was added to each well, which was subsequently drained from the plate. The rinsing step removed any suspended cells from the assay. An 0.1% crystal violet stain was added to each well for approximately 20 minutes. Next, the crystal violet solution was drained from the microtiter plate. The plate was rinsed with PBS as described above four (4) times to remove any excess stain from the plate. Following the PBS rinsing steps, the plate was eluted with 250 μL/well of ethanol, which improved the detection of the stain. The plate was immediately analyzed spectrophotometrically at 540 nm using a microtiter plate reader.
# The average O.D. for each test compound was compared to the average O.D. of the negative control (the positive control was employed to verify proper assay function).
# bacterial growth = test: Bacterial growth inhibition studies; format: cell-based
# S. mutans = settings: data of the '911 patent; cited from earlier work
# S. salivaris = settings: data of the '911 patent; cited from earlier work
# S. aureus = settings: data of the '911 patent; cited from earlier work
# E. coli = settings: data of the '911 patent; cited from earlier work
# P. aeruginosa = settings: data of the '911 patent; cited from earlier work
# [3] = 10 μg/ml, same microtiter assay
# [4] = 10 μg/ml, 20 to 24 hours at room temperature, O.D. 540 nm vs negative control
smiles,measurement,setting,value
C[C@@H]1CC[C@]2(C(=O)O)CC[C@]3(C)C(=CCC4[C@@]5(C)CC[C@H](OC(=O)OC(C)(C)C)C(C)(C)C5CC[C@]43C)C2[C@H]1C (stereo partly drawn) [3β-O-tert-butyloxycarbonyl-ursolic acid],inhibition at 32 µg/mL,[1],~46%
"CC1(C)CC[C@@]2(C(=O)O)C(O)C[C@]3(C)C(=CCC4[C@@]5(C)CC[C@H](O)[C@@](C)(CO)C5CC[C@]43C)C2C1 (some centres unmarked) [Compound 323, Caulophyllogenin]",inhibition at 10 µg/mL,Escherichia coli; [3],35%
"CO[C@H]1C[C@@]2(C)C(CC[C@]3(C)C2CC=C2C4[C@@H](C)[C@H](C)CCC4(C(=O)O)CC[C@]23C)C(C)(C)[C@@H]1O (stereo partly drawn) [Compound 410, 2β-methoxy-3α-hydroxy-12-ursen-28-oic acid]",inhibition at 32 µg/mL,[1],~38%
CO[C@H]1/C=C/O[C@@]2(C)Oc3c(C)c(O)c4c(O)c(c(/C=N/N5CCN(C)CC5)c(O)c4c3C2=O)NC(=O)/C(C)=C\C=C\[C@H](C)[C@H](O)[C@@H](C)[C@@H](O)[C@@H](C)[C@H](OC(C)=O)[C@@H]1C [rifampin],Eradication of MRSA in a biofilm,"[2]; biofilm, urinary catheters",unable to eradicate
same,"Activity against MRSA planktonic, or suspended cells",[2]; planktonic cells,effective
"C[C@H]1[C@H](C)CC[C@]2(C(=O)O)CC[C@]3(C)C(=CCC4[C@@]5(C)C[C@@H](O)[C@H](OC(=O)/C=C/c6ccc(O)cc6)C(C)(C)C5CC[C@]43C)[C@H]12 (stereo partly drawn) [Compound 189, 3-[4-hydroxycinnamoyl(trans-)]-2-hydroxyursolic acid]",inhibition at 10 µg/mL,Pseudomonas aeruginosa; [4],35%
"C[C@H]1[C@H](CO)CC[C@]2(C(=O)O)CC[C@]3(C)C(=CCC4[C@@]5(C)CC[C@H](O)C(C)(C)C5CC[C@]43C)[C@H]12 (some centres unmarked) [Compound 99, 30-hydroxyursolic acid]",inhibition at 10 µg/mL,Pseudomonas aeruginosa; [4],30%
"C[C@@H]1[C@H]2C3=CC[C@@H]4[C@@]5(C)CC[C@H](OC(=O)/C=C\c6ccc(O)cc6)C(C)(C)[C@@H]5CC[C@@]4(C)[C@]3(C)CC[C@@]2(C(=O)O)CC[C@]1(C)O (relative stereo) [Compound 188, 3-[4-Hydroxycinnamoyl(cis-)], 20-hydroxy-ursolic acid]",inhibition at 10 µg/mL,Pseudomonas aeruginosa; [4],62%
"C[C@@H]1CCC2(C(=O)O)CC[C@]3(C)C(=CCC4[C@@]5(C)C[C@@H](O)[C@H](O)[C@@](C)(CO)C5CC[C@]43C)C2[C@H]1C (some centres unmarked) [Compound 255, Asiatic Acid]",inhibition at 10 µg/mL,Escherichia coli; [3],75%
same,direct anti-bacterial activity,bacterial growth,do not display direct anti-bacterial activity
"C=C1CCC2(C(=O)O)CCC3(C)C(=CCC4C5(C)CCC(O)C(C)(C)C5CCC43C)C2C1C (centres unmarked) [Compound 430, 3-hydroxy-12,20(30) ursadien-28-oic acid]",inhibition at 10 µg/mL,Escherichia coli,60%
"C[C@@H]1CC[C@]2(C(=O)O)CC[C@]3(C)C(=CCC4[C@@]5(C)C[C@@H](O)[C@H](O)C(C)(C)C5CC[C@]43C)[C@@H]2[C@]1(C)O (some centres unmarked) [Compound 203, Tormentic Acid]",inhibition at 10 µg/mL,Pseudomonas aeruginosa; [4],43%
"C[C@H]1[C@H](C)CC[C@]2(C(=O)O)CC[C@]3(C)C(=CC[C@@H]4[C@@]5(C)C[C@@H](O)[C@H](O)[C@@](C)(CO)[C@@H]5[C@H](O)C[C@]43C)[C@H]12 [Compound 314, Madecassic Acid]",direct anti-bacterial activity,bacterial growth,do not display direct anti-bacterial activity
"C[C@@H]1[C@H]2C3=CCC4[C@@]5(C)CC[C@H](O)C(C)(C)C5CC[C@@]4(C)[C@]3(C)CC[C@@]2(C(=O)O)CC[C@]1(C)O (some centres unmarked) [Compound 195, 20B-hydroxyursolic acid]",inhibition at 10 µg/mL,Pseudomonas aeruginosa; [4],25%
"C[C@@H]1CC[C@]2(C(=O)O)CC[C@]3(C)C(=CCC4[C@]5(C)C(CC[C@]43C)[C@@](C)(CO)[C@H](O)[C@H](O)[C@H]5O)C2[C@H]1C (stereo partly drawn) [Compound 458, 1β,2α,3α,24-tetrahydroxy-12-ursen-28-oic acid]",inhibition at 32 µg/mL,[1],~45%
"CC1(C)CC[C@]2(C(=O)O)[C@H](O)C[C@]3(C)C(=CC[C@@H]4[C@@]5(C)CC[C@H](O)C(C)(C)[C@@H]5CC[C@]43C)[C@@H]2C1 [Compound 455, 3β,16α-dihydroxyolean-12-en-28-oic acid]",inhibition at 8 µg/mL,[1],~27%
same,inhibition at 16 µg/mL,[1],~50%
same,inhibition at 32 µg/mL,[1],~80%
"CC1CCC2(C(=O)O)CCC3(C)C(=CCC4C5(C)CC(O)C(O)C(C)(C)C5CCC43C)C2C1(C)O (centres unmarked) [Compound 192, Euscaphic Acid]",inhibition at 10 µg/mL,Pseudomonas aeruginosa; [4],32%
"C[C@@H]1CC[C@]2(C(=O)O)CCC3(C)C(=CCC4C5(C)C[C@H](O)[C@@H](O)C(C)(C)C5CCC43C)C2[C@H]1C (stereo partly drawn) [Compound 431, 2β,3α-dihydroxy-12-ursen-28-oic acid]",inhibition at 32 µg/mL,[1],~62%
"C[C@@H]1CC[C@]2(C(=O)O)CC[C@]3(C)C(=CCC4[C@@]5(C)C[C@@H](O)[C@@H](O)[C@](C)(CO)C5CC[C@]43C)C2[C@H]1C (stereo partly drawn) [Compound 457, 2α,3α,24-trihydroxy-12-ursen-28-oic acid]",inhibition at 8 µg/mL,[1],~50%
same,inhibition at 16 µg/mL,[1],~53%
same,inhibition at 32 µg/mL,[1],~80%
"CC1(C)CC[C@]2(C(=O)O)CCC3(C)C(=CCC4C5(C)C[C@@H](O)[C@H](O)C(C)(C)C5CCC43C)[C@@H]2C1 (some centres unmarked) [Compound 107, 2-hydroxyoleanic acid]",inhibition at 10 µg/mL,Pseudomonas aeruginosa,46%
"C[C@H]1[C@H](C)CC[C@]2(C(=O)O)CC[C@]3(C)C(=CC[C@@H]4[C@@]5(C)CC[C@H](O)C(C)(C)[C@@H]5CC[C@]43C)[C@H]12 [Compound 110, Ursolic Acid]",inhibition at 10 µg/mL,Escherichia coli; [3],80%
same,Growth inhibition of S. mutans,S. mutans,completely inhibited
same,Growth inhibition of S. salivaris,S. salivaris,completely inhibited
same,Growth inhibition of S. aureus,S. aureus,failed to inhibit
same,Growth inhibition of E. coli,E. coli,failed to inhibit
same,Growth inhibition of P. aeruginosa,P. aeruginosa,failed to inhibit
"CC1(C)CC[C@]2(C(=O)O)CC[C@]3(C)C(=CC[C@@H]4[C@@]5(C)CC[C@H](O)C(C)(C)[C@@H]5CC[C@]43C)[C@@H]2C1 [Compound 225, Oleanolic Acid]",inhibition at 10 µg/mL,Pseudomonas aeruginosa; [4],35%
same,inhibition at 10 µg/mL,Escherichia coli; [3],35%
same,Growth inhibition of S. mutans,S. mutans,incomplete inhibition
same,Growth inhibition of S. salivaris,S. salivaris,incomplete inhibition
same,Growth inhibition of S. aureus,S. aureus,failed to inhibit
same,Growth inhibition of E. coli,E. coli,failed to inhibit
same,Growth inhibition of P. aeruginosa,P. aeruginosa,failed to inhibit
CO[C@H]1C[C@@]2(C)C(CC[C@]3(C)C2CC=C2C4[C@@H](C)[C@H](C)CC[C@]4(C(=O)O)CC[C@]23C)C(C)(C)[C@@H]1OC(=O)/C=C/c1ccccc1 (stereo partly drawn) [2β-methoxy-3α-cinnamoyl-12-ursen-28-oic acid],inhibition at 32 µg/mL,[1],~40%
"C[C@@H]1CC[C@]2(C(=O)O)CCC3(C)C(=CCC4C5(C)C[C@@H](O)[C@H](O)C(C)(C)C5CCC43C)C2[C@H]1C (stereo partly drawn) [Compound 108, 2α,3β-dihydroxy-12-ursen-28-oic acid]",inhibition at 10 µg/mL,Pseudomonas aeruginosa; [4],52%
same,inhibition at 10 µg/mL,Escherichia coli; [3],74%
same,inhibition at 20 µg/mL,[1]; 20 ug/ml,~85%
